This passage reports IC50 results from patent publication US9617237B2, “Partially saturated tricyclic compounds and methods of making and using same” (Zafgen, Inc., priority 2011, dated 2017).

Where a name gives a salt, the structure may show the parent alone.

One may read the IC50 as the concentration at which inhibition is half-maximal.

This assay deals with T1, recombinant human MetAP2 (Homo sapiens, UniProt P50579).
T1 construct: made in house; host or cells: Sf9 insect cells
T1 sequence (P50579 whole entry): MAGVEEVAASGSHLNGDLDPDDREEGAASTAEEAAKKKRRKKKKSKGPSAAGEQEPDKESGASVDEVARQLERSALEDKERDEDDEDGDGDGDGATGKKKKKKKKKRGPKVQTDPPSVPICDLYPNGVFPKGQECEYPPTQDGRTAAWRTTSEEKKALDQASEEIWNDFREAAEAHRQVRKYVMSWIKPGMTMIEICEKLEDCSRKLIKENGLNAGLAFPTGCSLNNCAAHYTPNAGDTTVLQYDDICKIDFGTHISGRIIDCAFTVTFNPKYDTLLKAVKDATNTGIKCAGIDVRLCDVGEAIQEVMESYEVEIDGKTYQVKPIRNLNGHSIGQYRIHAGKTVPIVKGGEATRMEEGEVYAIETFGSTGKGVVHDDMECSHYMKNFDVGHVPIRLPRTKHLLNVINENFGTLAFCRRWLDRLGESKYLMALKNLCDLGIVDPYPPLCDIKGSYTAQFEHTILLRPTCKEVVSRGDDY
As to the kind of experiment: Inhibition of recombinant human MetAP2 activity (fluorescence, MAS substrate, amino acid oxidase/Amplex red). The format is biochemical. The note with it: manganese enzyme; 0.75 mM Methionine-Alanine-Serine (MAS) substrate; 30 minutes at 25° C.; pH 7.5; 1% DMSO. The method, then: Compounds are tested for their capacity to inhibit recombinant human MetAP2 activity using the following assay.
Human recombinant MetAP2 expressed in Sf9 cells followed by affinity purification and EDTA treatment to remove endogenous active site cation was dialysed against MnCl2 to produce the manganese enzyme used in the assay. The assay was carried out for 30 minutes at 25° C. in 50 mM HEPES buffer containing 100 mM NaCl, pH 7.5 the presence of 0.75 mM Methionine-Alanine-Serine (MAS) substrate and 50 μg/ml amino acid oxidase using a dilution of purified MetAP2 giving >3-fold signal: noise. Cleavage of the substrate by MetAP2 and oxidation of free methionine by amino acid oxidase was detected and quantified using fluorescence generated by Amplex red (10-acetyl-3,7-dihydroxyphenoxazine) in combination with horseradish peroxidase which detects H2O2 released during the oxidation step. The fluorescent signal was detected using a multiwell fluorimeter. Compounds were diluted in DMSO prior to addition to assay buffer, the final DMSO concentration in the assay being 1%.
IC50 values are calculated using the XLfit software package (version 2.0.5).
As for `O=C(O)c1c(NS(=O)(=O)c2ccc(F)cc2CCCN2CCCC2)ccc2c1OC[C@H]1OCC[C@@H]21` (racemic) [Cis-(3aRS,9bRS)-7-[2-(3-{Pyrrolidin-1-yl}propyl)-4-fluorobenzene-sulfonylamino]-1,3a,4,9b-tetrahydro-2H-furo[2,3-c]chromene-6-carboxylic acid], the IC50 is below 50 nM.

For the compound `CCN1CC[C@H](OCc2cc(F)ccc2S(=O)(=O)Nc2ccc3c(c2C(=O)O)OC[C@@H]2C[C@H]32)C1` [(1aR,7bS)-5-[2-((S)-1-Ethylpyrrolidin-3-yloxymethyl)-4-fluoro-benzenesulfonylamino]-1,1a,2,7b-tetrahydrocyclopropa-[c]chromene-4-carboxylic acid], the IC50 was in the range of 50 to 500 nM.

In the case of `O=C(O)c1c(NS(=O)(=O)c2ccccc2N[C@H]2CN3CCC2CC3)ccc2c1OCC1CC21` (mixture of isomers) [(1aRS,7bSR)-5-{2-[((R)-1-Azabicyclo[2.2.2]oct-3-yl)amino]benzenesulfonyl-amino}-1,1a,2,7b-tetrahydrocyclopropa[c]chromene-4-carboxylic acid], the IC50 is below 50 nM.

On to `O=C(O)c1c(NS(=O)(=O)c2ccccc2)ccc2c3c(cnc12)OCC3` [7-(Benzenesulfonylamino))-1,2-dihydrofuro[2,3-c]quinoline-6-carboxylic acid formate salt], for which the half-maximal inhibitory concentration (IC50) is below 50 nM.

For `CN(C)CCCNc1ccccc1S(=O)(=O)Nc1ccc2c(c1C(=O)O)OC[C@@H]1C[C@H]21` (racemic) [(1aRS,7bSR)-5-[2-(3-Dimethylaminopropylamino)benzene-sulfonylamino]-1,1a,2,7b-tetrahydrocyclopropa[c]chromene-4-carboxylic acid], the IC50 is below 50 nM.

With `CN(C)CCCCCNc1ccccc1S(=O)(=O)Nc1ccc2c(c1C(=O)O)OC[C@@H]1C[C@H]21` (racemic) [(1aRS,7bSR)-5-[2-(5-Dimethylaminopentylamino)benzene-sulfonylamino]-1,1a,2,7b-tetrahydrocyclopropa[c]chromene-4-carboxylic acid], the IC50 is below 50 nM.

Regarding `CCN1CC[C@H](Cc2cc(F)ccc2S(=O)(=O)Nc2ccc3c(c2C(=O)O)OC[C@@H]2C[C@H]32)C1` (mixture of isomers) [(1aRS,7bSR)-5-[2-((S)-1-Ethyl-pyrrolidin-3-ylmethyl)-4-fluorobenzenesulfonyl-amino]-1,1a,2,7b-tetrahydrocyclopropa[c]chromene-4-carboxylic acid], the IC50 was in the range of 50 to 500 nM.

On to `CCN1CC[C@@H](C(=O)NCc2cc(F)ccc2S(=O)(=O)Nc2ccc3c(c2C(=O)O)OC[C@@H]2C[C@H]32)C1` (mixture of isomers) [(1aRS,7bSR)-5-(2-{[((R)-1-Ethylpyrrolidine-3-carbonyl)amino]-methyl}-4-fluoro-benzenesulfonylamino)-1,1a,2,7b-tetrahydro-cyclopropa[c]chromene-4-carboxylic acid], for which the IC50 lay within 50 to 500 nM.

Take `CCN(CC)CCCNc1ccccc1S(=O)(=O)Nc1ccc2c(c1C(=O)O)OCC1CC21` (stereo not drawn) [(1aRS,7bSR)-5-[2-(3-N,N,-Diethylaminopropylamino)benzene-sulfonylamino]-1,1a,2,7b-tetrahydrocyclopropa[c]chromene-4-carboxylic acid]: the IC50 is below 50 nM.

Turning to `CCN1CC[C@H](NC(=O)Cc2cc(F)ccc2S(=O)(=O)Nc2ccc3c(c2C(=O)O)OC[C@@H]2C[C@H]32)C1` (mixture of isomers) [(1aRS,7bSR)-5-{2-[((S)-1-Ethylpyrrolidin-3-ylcarbamoyl)-methyl]-4-fluoro-benzenesulfonyl-amino}-1,1a,2,7b-tetrahydrocyclopropa-[c]chromene-4-carboxylic acid], the IC50 was in the range of 50 to 500 nM.

Take `CCN1CC[C@H](Nc2ccccc2S(=O)(=O)Nc2ccc3c(c2C(=O)O)OC[C@@H]2C[C@H]32)C1` (mixture of isomers) [(1aRS,7bSR)-5-{2-[((S)-1-Ethylpyrrolidin-3-yl)amino]-benzenesulfonylamino}-1,1a,2,7b-tetrahydrocyclopropa-[c]chromene-4-carboxylic acid]: the IC50 lay within 50 to 500 nM.

Regarding `CN(C)CCCC(=O)Nc1cc(F)ccc1S(=O)(=O)Nc1ccc2c(c1C(=O)O)OC[C@@H]1C[C@H]21` (racemic) [(1aRS,7bSR)-5-[2-(4-Dimethylaminobutyrylamino)-4-fluorobenzenesulfonyl-amino]-1,1a,2,7b-tetrahydrocyclopropa-[c]chromene-4-carboxylic acid], the concentration for half-maximal inhibition (IC50) was in the range of 50 to 500 nM.

In the case of `O=C(O)c1c(NS(=O)(=O)c2ccc(F)cc2/C=C\CN2CCCC2)ccc2c1OC[C@@H]1C[C@H]21` (single isomer, unassigned) [(1aRS,7bSR)-5-{2[(Z)-3-(pyrrolidin-1-yl)prop-1-enyl]-4-fluorobenzenesulfonylamino}-1,1a,2,7b-tetrahydro-cyclopropa[c]chromene-4-carboxylic acid], the IC50 was 50 to 500 nM.

Take `CCN1CC(c2cc(F)ccc2S(=O)(=O)Nc2ccc3c(c2C(=O)O)OC[C@@H]2C[C@H]32)C1` (racemic) [(1aRS,7bSR)-5-[2-(1-Ethylazetidin-3-yl)-4-fluorobenzene-sulfonylamino]-1,1a,2,7b-tetrahydro-cyclopropa[c]chromene-4-carboxylic acid]: the IC50 lay within 50 to 500 nM.

Take `CCN1CCC(Cc2cc(F)ccc2S(=O)(=O)Nc2ccc3c(c2C(=O)O)OC[C@@H]2C[C@H]32)CC1` (racemic) [(1aRS,7bSR)-5-[2-(1-Ethylpiperidin-4-ylmethyl)-4-fluoro-benzenesulfonylamino]-1,1a,2,7b-tetrahydrocyclopropa-[c]chromene-4-carboxylic acid]: the half-inhibitory concentration (IC50) was below 50 nM.

With `O=C(O)c1c(NS(=O)(=O)c2ccccc2N[C@@H]2CN3CCC2CC3)ccc2c1OCC1CC21` (mixture of isomers) [(1aRS,7bSR)-5-{2-[((S)-1-Azabicyclo[2.2.2]oct-3-yl)amino]benzenesulfonyl-amino}-1,1a,2,7b-tetrahydrocyclopropa[c]chromene-4-carboxylic acid], the IC50 lay in the range of 50 to 500 nM.

Consider `O=C(O)c1c(NS(=O)(=O)c2ccc(F)cc2/C=C\CN2CCCC2)ccc2c1OC[C@@H]1C[C@H]21` (racemic) [(1aRS,7bSR)-5-{2[(Z)-3-(Pyrrolidin-1-yl)prop-1-enyl]-4-fluorobenzenesulfonylamino}-1,1a,2,7b-tetrahydro-cyclopropa[c]chromene-4-carboxylic acid], for which the IC50 was below 50 nM.

`CCN1CCC[C@@H]1CCNc1ccccc1S(=O)(=O)Nc1ccc2c(c1C(=O)O)OC[C@@H]1C[C@H]21` (mixture of isomers) [(1aRS,7bSR)-5-{2-[2-((R)-1-Ethylpyrrolidin-2-yl)ethylamino]-benzenesulfonyl-amino}-1,1a,2,7b-tetrahydrocyclopropa-[c]chromene-4-carboxylic acid]: the IC50 is below 50 nM.

As for `CCNC/C=C\c1cc(F)ccc1S(=O)(=O)Nc1ccc2c(c1C(=O)O)OC[C@@H]1C[C@H]21` (single isomer, unassigned) [(1aRS,7bSR)-5-[2((Z)-3-ethylaminoprop-1-enyl)-4-fluorobenzenesulfonylamino]-1,1a,2,7b-tetrahydrocyclopropa[c]chromene-4-carboxylic acid], the IC50 was below 50 nM.

With `CN(C)CCCNC(=O)c1ccccc1S(=O)(=O)Nc1ccc2c(c1C(=O)O)OC[C@@H]1C[C@H]21` (racemic) [(1aRS,7bSR)-5-[2-(3-Dimethylaminopropylcarbamoyl)benzene-sulfonylamino]-1,1a,2,7b-tetrahydrocyclopropa[c]chromene-4-carboxylic acid], the IC50 was 50 to 500 nM.
